Among the data in ChEMBL document CHEMBL3862002, “Wortmannilactones I-L, new NADH-fumarate reductase inhibitors, induced by adding suberoylanilide hydroxamic acid to the culture medium of Talaromyces wortmannii” (Bioorg Med Chem Lett, 2016) are IC50 values, retold here.

One experiment concerns the target T1, Fumarate reductase (Ascaris suum, UniProt F1KRD8).
T1 sequence (F1KRD8 whole entry): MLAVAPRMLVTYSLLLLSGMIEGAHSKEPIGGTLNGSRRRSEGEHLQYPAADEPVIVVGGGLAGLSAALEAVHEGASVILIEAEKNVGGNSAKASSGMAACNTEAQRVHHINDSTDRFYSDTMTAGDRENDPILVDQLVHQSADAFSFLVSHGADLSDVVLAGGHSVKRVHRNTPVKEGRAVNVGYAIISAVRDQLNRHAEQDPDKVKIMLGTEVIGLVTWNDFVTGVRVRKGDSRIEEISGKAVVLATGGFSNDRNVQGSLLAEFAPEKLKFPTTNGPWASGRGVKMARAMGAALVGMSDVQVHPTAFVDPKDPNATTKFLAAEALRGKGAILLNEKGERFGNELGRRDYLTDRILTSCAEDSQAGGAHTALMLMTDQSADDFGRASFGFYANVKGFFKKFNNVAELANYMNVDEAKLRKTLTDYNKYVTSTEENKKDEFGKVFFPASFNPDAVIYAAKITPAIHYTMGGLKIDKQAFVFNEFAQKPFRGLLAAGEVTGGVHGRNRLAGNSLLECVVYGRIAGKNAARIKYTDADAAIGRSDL
Put plainly: Inhibition of NADH-Fumarate reductase in Ascaris suum muscle sub-mitochondrial particles using disodium fumarate as substrate in presence of NADH after 3 mins measured every 15 sec for 10 mins under anaerobic condition.

Experiment [1] is described as follows: Inhibition of NADH oxidase in pig heart sub-mitochondrial particles using NADH as substrate after 3 mins measured every 15 sec for 10 mins under aerobic condition. The arrangement: species or system Sus scrofa.

SMILES strings stand for the structures.

Take `C=C1C=C(C)[C@H](/C(C)=C/C=C/C=C/C=C/[C@]2(C)[C@H]3OC(=O)[C@]2(C)C(=O)[C@@H]3C)O[C@H]1C`: the IC50 at Fumarate reductase turned out to be 840 nM; in experiment [1], 35000 nM.

Turning to `CC1=C[C@@](C)(O)[C@@H](C)O[C@H]1/C(C)=C/C=C/C=C/C=C/C(C)=C/[C@]1(C)[C@H]2OC(=O)[C@]1(C)C(=O)[C@@H]2C`, the 50% inhibitory concentration (IC50) on Fumarate reductase is 2.4 nM.

For the molecule `CO[C@@]1(C)C=C(C)[C@H](/C(C)=C/C=C/C=C/C=C/[C@]2(C)[C@H]3OC(=O)[C@]2(C)C(=O)[C@@H]3C)O[C@H]1C`, the figures for the IC50 (at Fumarate reductase; in experiment [1]) were 840 nM and 100000 nM, respectively.

Turning to `CO[C@]1(C)C=C(C)[C@H](/C(C)=C/C=C/C=C/C=C/[C@]2(C)[C@H]3OC(=O)[C@]2(C)C(=O)[C@@H]3C)O[C@H]1C`, the IC50 amounted to 1350 nM on Fumarate reductase and 145000 nM in experiment [1].

`CC1=C[C@@](C)(O)[C@@H](C)O[C@@H]1/C(C)=C/C=C/C=C/C=C/C(C)=C/[C@]1(C)[C@H]2OC(=O)[C@]1(C)C(=O)[C@@H]2C`: the concentration for half-maximal inhibition (IC50) at Fumarate reductase stood at 470 nM.

As for `CC1=C[C@](C)(O)[C@H](/C(C)=C/C=C/C=C/C=C/[C@]2(C)[C@H]3OC(=O)[C@]2(C)C(=O)[C@@H]3C)O[C@H]1C`, the 50% inhibitory concentration (IC50) on Fumarate reductase came out at 850 nM; in experiment [1], 56000 nM.

For `Cc1cc(/C=C/c2ccc3cc(N(C)C)ccc3[n+]2C)c(C)n1-c1ccccc1` [PYRVINIUM PAMOATE], the 50% inhibitory concentration (IC50) at Fumarate reductase amounted to 500 nM.
